Reference: patent publication US20250144069A1, “BILOBALIDE DERIVATIVE COMPOUNDS FOR TREATING NEUROLOGICAL DISEASES AND CANCERS” (The Chinese University of Hong Kong, priority 2023, published 2025)

Tests used:
[1] = system: BV-2 murine microglial cell line; test: RSL3-induced ferroptosis model, cell viability (CCK-8); conditions: BV-2, RSL3 500 nM 2 h, then 50 μM compound 22 h
Method: In this example, the anti-ferroptotic properties of the BB analogues described in preceding examples were evaluated by a RSL3-induced ferroptosis model. […] To evaluate the anti-ferroptosis activity of BB analogues, we developed a phenotypic screening based on RSL3-induced ferroptosis model on HT22 mouse hippocampal cell line, HMC3 microglial cell line and BV-2 murine microglial cell line which were co-treated or pre-treated with RSL3 and BB analogues for 2-24 h, and the cell viability was subsequently measured. […]
For phenotypic screening of bilobalide (BB) analogues, 5,000 cells per well (100 uL volume) of HT22, HMC3 or BV-2 cells were placed in 96-well plate and allowed to adhere for 22 h. […] Cell viability was measured using cell counting kit-8 (CCK-8) (MCE). […] Cell viability was measured after 22 h treatment by CCK-8. […] Cell viability was measured by CCK-8 using CLARIOstar monochromator multimode plate reader under 450 nm wavelength.
In this example, the cells were pre-treated with RSL3 (200 nM for HT22 and HMC3, 500 nM for BV-2) for two hours, followed by bilobalide analogues treatment (50 PM) for 22 hours. Cell viability was measured using cell counting kit-8 (CCK-8); n=5 technical replicates. […]

HMC3 cells [2] = test: Lipid peroxidation level by flow cytometry using C11-BODIPY; assay type: cell-based; conditions: HMC3, 50 nM RSL3 2 h, then 50, 25 and 12.5 μM compound 3 h
Method: (§1) For flow cytometry, HMC3 cells (seeded 50,000 cells per well on 24-well plate one day prior to the experiment) were pretreated with 50 nM RSL3 for 2 h. […] After which medium was replaced with BODIPY™ 581/591C11 (10 μM, Invitrogen) or CellROX™ Green (5 μM, Invitrogen) for 30 min staining. Cells were then washed 3 times with PBS and collected. Fluorescence was measured by BD FACSympgony A5.2 SORP Flow Cell Analyzer (BD Biosciences).
Disequilibrium ROS level acts as a direct initiator of lipid peroxidation, which is one of the major hallmarks of ferroptosis. In this example, HMC3 cells according to the conditions in Table 4 were subjected to measurement of lipid peroxidation level using flow cytometry and the lipid peroxidation sensor C11-BODIPY.
For flow cytometry, HMC3 cells (seeded 50,000 cells per well on 24-well plate one day prior to the experiment) were pretreated with 50 nM RSL3 for 2 h. After RSL3 treatment, medium was replaced by DMSO (0.1%) only, SXQ087-1 (10, 5 and 2.5 μM), following by 3 h treatment. After which medium was replaced with BODIPY™ 581/591C11 (10 μM, Invitrogen) for 30 min staining. Cells were then washed 3 times with PBS and collected. Fluorescence was measured by BD FACSympgony A5.2 SORP Flow Cell Analyzer (BD Biosciences).
Lipid peroxidation is one of the major hallmarks of ferroptosis. In this example, HMC3 cells according to the conditions in Table 5 were subjected to measurement of lipid peroxidation level using flow cytometry and the lipid peroxidation sensor C11-BODIPY.

Jurkat cells = test: Single-dose CCK-8 cell viability screening (suspension cells); assay type: cell-based, human; conditions: Homo sapiens, Jurkat, 48 h, Jurkat cells, 50 uM, CCK-8, read-out: % Viability (50 uM, 48 h) Jurkat
HMC3 cells [3] = test: Intracellular ROS level by CellROX (fluorescent imaging and flow cytometry); assay type: cell-based; conditions: HMC3, 50 nM RSL3 2 h, then 50 μM compound 3 h
Method: as §1
For fluorescent imaging, 10,000 cells per well of HMC3 were laid on cover slip and incubated overnight. After the same compound treatment as described above in this section, cells were subsequently incubated with CellROX™ Green and Hoechst 34580 (MCE) for 30 min. After incubation, cells were washed 3 times gently with PBS. Cover slips were then attached to glass slides by Anti-Fade Fluorescence Mounting Medium (Abcam) and imaged via ECLIPSE Ti fluorescence microscope (Nikon). Fluorescent intensity was quantified using imageJ software.
To further evaluate the anti-ferroptotic properties of bilobalide analogues, we tested its effect on the total level of intracellular reactive oxygen species (ROS), we performed fluorescent staining on the HMC3 cell line using CellROX, which is a probe which can emit green fluorescence after reacting with ROS. […]

[4] = Single-dose CCK-8 cell viability screening (adherent cells); assay type: cell-based, human; conditions: Homo sapiens, A549, 48 h, average of A549 and Jurkat % viability, 50 uM, 48 h
A549 cells = test: as above; assay type: cell-based, human; conditions: Homo sapiens, A549, 48 h, A549 cells, 50 uM, 48 h, CCK-8; read-out: % Viability (50 uM, 48 h) A549
[5] = system: HMC3 microglial cell line; test: RSL3-induced ferroptosis model, cell viability (CCK-8); assay type: cell-based

CC(C)(C)[C@]1(O)C[C@@H]2OC(=O)C[C@@]23C(=O)O[C@@H]2N(c4ccc(N)cc4)C(=O)[C@H](OC(=O)c4ccccc4)[C@]213 [XBB-037, 4-(3aS,5aS,8R,9R,10aS)-8-(benzoyloxy)-9-(tert-butyl)-9-hydroxy-2,4,7-trioxohexahydro-4H,9H-furo[3″,2″:2′,3′]cyclopenta[1′,2′:3,4]furo[2,3-b]pyrrol-6(5aH)-yl)benzenaminium chloride]
inhibition of RSL3-induced ferroptosis (phenotypic screening, cell viability) [1]: effectively inhibit ferroptosis | lipid peroxidation level (C11-BODIPY) (HMC3 cells [2]): significant down-regulation of RSL3-induced lipid peroxidation accumulation in a dose-dependent manner | viability at 50 µM (Jurkat cells): 86% | intracellular ROS level (CellROX fluorescent staining) (HMC3 cells [3]): significantly reduced intracellular ROS level | viability at 50 µM [4]: 90.5% | viability at 50 µM (A549 cells): 95% | inhibition of RSL3-induced ferroptosis (phenotypic screening, cell viability) ([5]; HMC3, RSL3 200 nM 2 h, then 50 μM compound 22 h): effectively inhibit ferroptosis | shift of RSL3 dose-dependent viability curve ([5]; HMC3, multiple doses of RSL3, 50 μM compound): diminished RSL3 lethality
